# Measurements reported in patent US20080255137A1 (Arena Pharmaceuticals, Inc., priority 2004, published 2008).
# Tests used:
# guinea pigs = conditions: repeat administration; cited from earlier work
# 5HT2B receptor = 5HT2B receptor (Homo sapiens, UniProt P41595); assay: Activity against the 5HT2B receptor (selectivity); assay type: cell-based
# human 5HT2C receptor = molecular target: T1, human 5HT2C receptor (Homo sapiens, UniProt P28335); assay: Intracellular IP3 (IP) accumulation assay, 5HT2C; assay type: cell-based; conditions: HEK293 cells transfected with human 5HT2C receptor cDNA
# T1 construct: expressed in transfected cells; host or cells: HEK293
# T1 sequence (P28335 33-458): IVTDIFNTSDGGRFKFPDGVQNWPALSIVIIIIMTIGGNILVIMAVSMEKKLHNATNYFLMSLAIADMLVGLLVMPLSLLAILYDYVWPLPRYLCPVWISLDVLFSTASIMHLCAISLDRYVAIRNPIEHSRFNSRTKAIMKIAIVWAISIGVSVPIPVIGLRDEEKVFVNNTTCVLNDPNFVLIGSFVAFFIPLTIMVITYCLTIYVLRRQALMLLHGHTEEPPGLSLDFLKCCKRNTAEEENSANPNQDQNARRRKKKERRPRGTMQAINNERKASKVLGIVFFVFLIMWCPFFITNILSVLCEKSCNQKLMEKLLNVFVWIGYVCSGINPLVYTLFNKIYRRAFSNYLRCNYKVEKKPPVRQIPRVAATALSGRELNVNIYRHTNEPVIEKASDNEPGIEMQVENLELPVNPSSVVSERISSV
# Protocol: HEK293 cells were transfected in 15 cm sterile dishes with or without (control) 16 ug of human 5HT2C receptor cDNA [for example see, Saltzman, A. G., et al. Biochem. Biophys. Res. Commun. 181, 1469-1478 (1991)] using 25 ul of lipofectamine. Cells were then incubated for 3-4 hours at 37° C./5% CO2 and then transfection media was removed and replaced with 100 ul of DMEM. Cells were then plated onto 100 cm sterile dishes. The next day cells were plated into 96 well PDL microtiter plates at a density of 55K/0.2 mL. Six hours latter, media was exchanged with [^3H]inositol (0.25 uCi/well) in inositol free DMEM and plates were incubated at 37° C./5% CO2 overnight. The next day, wells were aspirated and 200 ul of DMEM containing test compound, 10 uM pargyline, and 10 mM LiCl was added to appropriate wells. Plates were then incubated at 37° C./5% CO2 for three hours followed aspiration and by addition of fresh ice cold stop solution (1M KOH, 19 mM Na-borate, 3.8 mM EDTA) to each well. Plates were kept on ice for 5-10 min and the wells were neutralized by addition of 200 ul of fresh ice cold neutralization solution (7.5% HCl). Plates were then frozen until further processing is desired. The lysate was then transferred into 1.5 mL Eppendorf tubes and 1 mL of chloroform/methanol (1:2) was added/tube. […]
# 5HT2A receptor = 5HT2A receptor (Homo sapiens, UniProt P28223); assay: EC50 against the 5HT2A receptor (selectivity); assay type: cell-based
# Sequence of 5HT2A receptor (P28223 whole entry): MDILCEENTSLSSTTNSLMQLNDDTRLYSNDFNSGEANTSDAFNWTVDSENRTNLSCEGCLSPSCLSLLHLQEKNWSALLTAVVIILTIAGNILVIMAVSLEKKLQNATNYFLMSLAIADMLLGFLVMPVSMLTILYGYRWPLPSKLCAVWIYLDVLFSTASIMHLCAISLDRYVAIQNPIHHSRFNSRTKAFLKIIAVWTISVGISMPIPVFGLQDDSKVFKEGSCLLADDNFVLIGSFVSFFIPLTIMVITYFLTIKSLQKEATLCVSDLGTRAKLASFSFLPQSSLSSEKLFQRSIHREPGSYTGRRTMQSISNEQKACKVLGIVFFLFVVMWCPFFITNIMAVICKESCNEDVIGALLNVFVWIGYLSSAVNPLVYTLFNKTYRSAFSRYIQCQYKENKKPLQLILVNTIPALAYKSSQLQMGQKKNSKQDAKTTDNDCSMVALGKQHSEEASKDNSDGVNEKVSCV
# Sequence of 5HT2B receptor (P41595 whole entry): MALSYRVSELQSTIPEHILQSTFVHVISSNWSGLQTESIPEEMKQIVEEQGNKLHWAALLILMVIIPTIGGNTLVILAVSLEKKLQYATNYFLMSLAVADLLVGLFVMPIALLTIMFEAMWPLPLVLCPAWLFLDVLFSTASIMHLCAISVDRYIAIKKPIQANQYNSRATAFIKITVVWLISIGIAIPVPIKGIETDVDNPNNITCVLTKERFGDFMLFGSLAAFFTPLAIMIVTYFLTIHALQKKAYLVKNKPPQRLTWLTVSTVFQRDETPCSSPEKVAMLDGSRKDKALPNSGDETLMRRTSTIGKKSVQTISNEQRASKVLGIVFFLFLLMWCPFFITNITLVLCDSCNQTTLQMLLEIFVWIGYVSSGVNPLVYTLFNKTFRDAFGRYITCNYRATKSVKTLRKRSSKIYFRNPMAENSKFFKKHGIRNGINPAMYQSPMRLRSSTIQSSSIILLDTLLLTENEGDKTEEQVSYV
SMILES,amyloid precursor protein (APPs) secretion (guinea pigs),levels of Aβ production in vivo (guinea pigs),activity against the 5HT2B receptor (5HT2B receptor),EC50 (human 5HT2C receptor),EC50 (5HT2A receptor)
"C[C@H](N)Cc1cccc(C(F)(F)F)c1 [DEXNOR, dexnorfenfluramine]",stimulated,reducing,,,
"C[C@@H]1CNCCN1c1cccc(-c2ccccc2)c1F [Compound 10, (R)-1-(2-Fluoro-biphenyl-3-yl)-2-methyl-piperazine]",,,essentially inactive,5 nM,~1700 nM
C[C@@H]1CNCCN1c1cc(F)cc(-c2ccsc2)c1 [Compound 1],,,,2 nM,
